Measurements from US20080280883A1, “Muscarinic Receptor Antagonists” (priority 2004, published 2008).

Tested on: bladder pressure and salivation
Experiment: In vivo experiments using anesthetized rabbit (carbachol challenge)
Conditions: carbachol 1.5 ug/kg intra-arterial, from ID50 values, expressed as fold of selectivity of oxybutynin

CN1CCC(N(C)CC(O)C(O)(c2ccccc2)C2CCCC2)CC1 (centres unmarked) [Compound No. 24, 1-Cyclopentyl-3-[methyl-(1-methyl-piperidin-4-yl)-amino]-1-phenyl-propane-1,2-diol]
Selectivity for bladder pressure inhibition vs. salivation: about 2

CC1=NCCN1CC(=O)[C@](O)(c1ccccc1)C1CCCC1 [Compound No. 85, (2R)-1-Cyclopentyl-1-hydroxy-3-(2-methyl-4,5-dihydro-imidazol-1-yl)-1-phenyl-propan-2-one]
Selectivity for bladder pressure inhibition vs. salivation: about 2
